Results as given in patent US4337272A, “Amino-ethanol derivatives” (Valeas S. R. L. Industria Chimica E Farmaceutica, priority 1975, dated 1982).
Counter-ions that a name gives are not always drawn.

Key:
[1] = Acute toxicity LD50 (Litchfield and Wilcoxon); settings: in vivo
[2] = system: bronchospasm induced by Acetilcholine in conscious guinea pig; assay: Prevention of acetylcholine-induced bronchospasm in conscious guinea pig by inhalation (Armitage method)
[3] = system: Guinea Pig airway constriction; settings: i.v.; literature (Duhault et al.); cited from earlier work

CC(C)NCC(O)c1cc(O)cc(O)c1 (centres unmarked) [Orciprenaline, reference compound]
LD50 [1]: 380 mg/kg
time before sign of dispnea (mean) [2]: 502 ± 67 s

Cn1c(=O)c2[nH]cnc2n(C)c1=O [Theophylline]
active dose in the experimental bronchospasm according to Konzett-Rossler [3]: 25 mg/kg

COc1ccc(CC(C)NCC(O)c2cc(N)cc(CO)c2)cc1 (centres unmarked) [VAL 5000/PM, 1-(5-amino-3 hydroxymethyl) phenyl-2-(1 p-methoxyphenyl-2-propylamino)ethanol dihydrochloride]
LD50 [1]: 295 mg/kg
time before sign of dispnea (mean) [2]: 475 ± 60 s
